These results are taken from patent US9066865B2, “Pharmaceutical compositions for the treatment of inner ear disorders” (AURIS MEDICAL AG, priority 2005, dated 2015).

A short description of data set [1]: pharmacokinetic study: Ketamine in perilymph after 2.8% hyaluronic acid gel on the round window membrane. The data set is classed as in vivo. Particulars: 1 mM, guinea pig. The protocol:
In a second step, a pharmacokinetic study with pigmented guinea pigs was carried out in order to evaluate in vivo the diffusion of Ketamine from a hyaluronic acid gel formulation across the round window membrane into the inner ear. A total of 30 animals were tested for concentrations of the pharmaceutical compound in the perilymph at 1 hour, 3 hours, 8 hours, 24 hours and 72 hours following gel administration; 6 animals per time point were tested.
Animals were anaesthetized with a single-dose i.p. injection of 0.3 ml/kg of pentobarbital at 6% (Ceva sante animale), and the right ear bulla was opened using a posterior auricular surgical procedure (dorsal approach). 2 microliters of the hyaluronic gel formulation (2.8% Hylumed Sterile in artificial perilymph, molecular weight 2.44 million; Genzyme Corp.) with S-(+)-Ketamine (Sigma-Aldrich) at a concentration of 1 milliM were then deposited onto the round window membrane of the inner ear. At each of the aforementioned time points, one group of animals was decapitated under deep anaesthesia (pentobarbital 50 mg/kg). […] The samples were then analyzed by liquid chromatography mass spectrometry with a limit of quantification of 0.2 ng/ml (HPLC instrument: Perkin Elmer series 200; mass spectrometer detector: MSD Sciex API 4000 Applied Biosystems; column: Zorbax SB CN 50×2.1 mm 5 μm-Agilent technologies).

The nature of data set [2]: in vitro release of Ketamine from hyaluronic acid gel into PBS (without membrane or Franz cell with filter/dialysis membrane). In kind it is physicochemical. The protocol:
A hyaluronic acid solution (Hylumed, Genzyme Corp.) was prepared at concentrations of 5 and 7.5% in phosphate buffered saline (PBS). At 8%, handling of the gel had shown to be difficult due to the high viscosity. S-(+)-Ketamine hydrochloride (Sigma-Aldrich) was dissolved at a concentration of 2% (weight/weight) equivalent to 73 mM. To evaluate the importance of the drug load factor, concentrations of 0.5% and 2.5% were also tested. Release of the pharmacologically active agent was measured in PBS, a common receiver fluid for controlled release studies, either without any membrane or by using a filter membrane or a dialysis membrane (Spectropore) in a Franz cell (PermeGear). The membranes were employed to mimic the rate limiting membrane of the round window. The temperature of the fluid was maintained constant at body temperature. The bottom chamber of the Franz cell was filled with 5 ml of PBS as the receiver fluid. The receiver fluid contained a stir bar for continuous agitation. The upper chamber was filled with approximately 50 mg of gel and the cell assembled. At various time points, aliquots (typically 1 ml) were withdrawn and analyzed by UV spectrophotometry (Agilent 8453). The absorbance at 215 nm was measured and the concentration calculated using an extinction coefficient of 30 ml/mg cm. As the volume of the aliquot was known, the total amount released could be determined. Each time an aliquot was withdrawn, the same volume of PBS was placed back into the Franz cell chamber.

For data set [3], the system named is PCP binding site of the NMDA receptor. Particulars: relative to (R)-ketamine; cited from earlier work.

The structures appear in SMILES notation.

On to `CN[C@@]1(c2ccccc2Cl)CCCCC1=O` (stereo in doubt) [Ketamine, 2-(2-chlorophenyl)-2-(methylamino)-cyclohexanone], for which the “time to maximum concentration of Ketamine in perilymph” value in data set [1] (2 microliters on round window membrane) is recorded as “within one hour”. Also, in data set [1] (LOQ 0.2 ng/ml), the “last quantifiable levels in perilymph” value was “after three days”. Moreover, the “release rate at 7.5% hyaluronic acid compared with 5%” value in data set [2] (7.5% hyaluronic acid gel, rate limiting membrane) was “less quickly than at 5%”. Also, the “duration of release of Ketamine into PBS” value in data set [2] (Franz cell with dialysis membrane) is “about three days”; in data set [2] (Franz cell with filter membrane), “approximately 60 hours”. Moreover, in data set [2] (gel with 0.5% Ketamine by weight, Franz cell with filter membrane), the “release speed compared with Ketamine hydrochloride solution” value is given as “nearly as fast as a simple Ketamine hydrochloride solution”. Moreover, the “amount released in the first hour (initial burst)” value in data set [2] (gel with 2.5% Ketamine loading factor, Franz cell with filter membrane) is “about 20%”. Besides, the “share of the total cumulative concentration in PBS achieved” value in data set [2] (hyaluronic acid gel, no rate limiting membrane, after one hour) is roughly 50%. For the same compound, the “duration of release of Ketamine from hyaluronic acid gel” value in data set [2] (no membrane) was “over just a few hours”. The “higher affinity to the PCP binding site of the NMDA receptor than (R)-ketamine” value in data set [3] is listed as 3-4 fold.
